Measured values: PubChem BioAssay AID248 (DTP/NCI, 2004)
Values joined by “and” are separate entries in the source; they are usually repeats but may differ in a detail not shown here. Equal entries are not always repeated. Toxic doses and inconclusive results are not listed. No stated cut-off is given here; in the data, active means T/C of 150% or more; inactive means T/C below 125%. Peptide text beside a SMILES is read from it. * marks the point of attachment. Bz = O=C(c1ccccc1)*

Tested on: L1210 leukemia ip in BDF1 mice, survival T/C
Experiment: NCI In Vivo Anticancer Drug Screen. Data for tumor model L1210 Leukemia (intraperitoneal) in B6D2F1 (BDF1) mice
Conditions: endpoint: mean survival time, higher = longer survival
Summary of the method: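 Tumor cells were implanted, animals were treated, and survival was followed. The result divides the treated measurement by the vehicle-control measurement.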

[1] = dose: 100.0 mg/kg/injection, schedule: Q01DX001 (ip), vehicle: saline
[2] = dose: 200.0 mg/kg/injection, schedule: Q01DX001 (ip), vehicle: saline
[3] = dose: 100.0 mg/kg/injection, schedule: Q01DX009 (ip), vehicle: Klucel (hydroxypropylcellulose) (HPC)
[4] = dose: 100.0 mg/kg/injection, schedule: Q04DX003 (ip), vehicle: Klucel (hydroxypropylcellulose) (HPC)
[5] = dose: 200.0 mg/kg/injection, schedule: Q01DX009 (ip), vehicle: Klucel (hydroxypropylcellulose) (HPC)
[6] = dose: 400.0 mg/kg/injection, schedule: Q04DX003 (ip), vehicle: Klucel (hydroxypropylcellulose) (HPC)
[7] = dose: 100.0 mg/kg/injection, schedule: Q01DX009 (ip), vehicle: saline with Tween-80
[8] = dose: 100.0 mg/kg/injection, schedule: Q04DX003 (ip), vehicle: saline with Tween-80
[9] = dose: 200.0 mg/kg/injection, schedule: Q04DX003 (ip), vehicle: saline with Tween-80
[10] = dose: 100.0 mg/kg/injection, schedule: Q04DX003 (ip), vehicle: saline
[11] = dose: 200.0 mg/kg/injection, schedule: Q04DX003 (ip), vehicle: saline
[12] = dose: 400.0 mg/kg/injection, schedule: Q04DX003 (ip), vehicle: saline
[13] = dose: 400.0 mg/kg/injection, schedule: Q01DX009 (ip), vehicle: Klucel (hydroxypropylcellulose) (HPC)
[14] = dose: 400.0 mg/kg/injection, schedule: Q04DX003 (ip), vehicle: saline with Tween-80
[15] = dose: 100.0 mg/kg/injection, schedule: Q04DX002 (ip), vehicle: Klucel (hydroxypropylcellulose) (HPC)
[16] = dose: 200.0 mg/kg/injection, schedule: Q04DX002 (ip), vehicle: Klucel (hydroxypropylcellulose) (HPC)
[17] = dose: 200.0 mg/kg/injection, schedule: Q04DX003 (ip), vehicle: Klucel (hydroxypropylcellulose) (HPC)
[18] = dose: 50.0 mg/kg/injection, schedule: Q01DX009 (ip), vehicle: saline
[19] = dose: 100.0 mg/kg/injection, schedule: Q01DX009 (ip), vehicle: saline
[20] = dose: 200.0 mg/kg/injection, schedule: Q01DX009 (ip), vehicle: saline
[21] = dose: 100.0 mg/kg/injection, schedule: Q04DX002 (ip), vehicle: saline with Tween-80
[22] = dose: 200.0 mg/kg/injection, schedule: Q01DX009 (ip), vehicle: saline with Tween-80
[23] = dose: 200.0 mg/kg/injection, schedule: Q04DX002 (ip), vehicle: saline with Tween-80
[24] = dose: 400.0 mg/kg/injection, schedule: Q04DX002 (ip), vehicle: saline with Tween-80
[25] = dose: 400.0 mg/kg/injection, schedule: Q01DX009 (ip), vehicle: saline with Tween-80
[26] = dose: 100.0 mg/kg/injection, schedule: Q01DX001 (ip), vehicle: carboxymethylcellulose (CMC)
[27] = dose: 200.0 mg/kg/injection, schedule: Q01DX001 (ip), vehicle: carboxymethylcellulose (CMC)

Measured: T/C

CCCCSC1CCCC1
inactive: dose: 50.0 mg/kg/injection, schedule: Q01DX009 (ip), vehicle: acetone 98 % of control | [1] 89 % of control | dose: 100.0 mg/kg/injection, schedule: Q01DX009 (ip), vehicle: acetone 110 % of control | [2] 92 % of control

O=C(O)c1ccc(/C=N/NC(=O)c2cccc3ccccc23)cc1
inactive: [1] 87 % of control | [2] 87 % of control

O=C(COc1ccc(Cl)cc1)Nc1ccc(F)cc1
inactive: [3] 98 % of control | [4] 95 % of control | [5] 90 % of control | [6] 95 % of control

CCCC(O)Cc1c[nH]c(=O)[nH]c1=O (stereo unspecified)
inactive: dose: 50.0 mg/kg/injection, schedule: Q01DX009 (ip), vehicle: saline with Tween-80 103 % of control | [7] 98 % of control | [8] 95 % of control | [9] 98 % of control

O=C(Nc1cccs1)c1ccccc1
inactive: [10] 97 % of control | [11] 93 % of control | [12] 95 % of control

COc1cccc(OC)c1OC(=O)Nc1cccc(C(F)(F)F)c1
inactive: [3] 101 % of control | [5] 98 % of control | [13] 90 % of control

CC(C)CC(=O)Nc1ccc(S(=O)(=O)NCC(C)(C)O)cc1
inactive: [8] 98 % of control | [9] 98 % of control | [14] 95 % of control

O=C(O)c1ncn[nH]1
inactive: [3] 95 % of control | [15] 89 % of control | [4] 101 % of control | [5] 100 % of control | [16] 115 % of control | [17] 95 % of control | [13] 100 % of control | dose: 400.0 mg/kg/injection, schedule: Q04DX002 (ip), vehicle: Klucel (hydroxypropylcellulose) (HPC) 89 % of control | [6] 108 % of control

CNC1CCCCC1O (stereo unspecified)
inactive: [18] 97 % of control | [19] 91 % of control | [20] 94 % of control

CCN1C(=S)N(C)C(=O)/C1=C\N(C(C)=O)c1ccccc1
inactive: dose: 50.0 mg/kg/injection, schedule: Q04DX003 (ip), vehicle: Klucel (hydroxypropylcellulose) (HPC) 103 % of control | dose: 100.0 mg/kg/injection, schedule: Q01DX001 (ip), vehicle: Klucel (hydroxypropylcellulose) (HPC) 104 % of control | [4] 112 % of control | dose: 200.0 mg/kg/injection, schedule: Q01DX001 (ip), vehicle: Klucel (hydroxypropylcellulose) (HPC) 104 % of control | [17] 100 % of control | dose: 400.0 mg/kg/injection, schedule: Q01DX001 (ip), vehicle: Klucel (hydroxypropylcellulose) (HPC) 102 % of control

O=C(Nc1ccc(I)cc1)Nc1ccc(Cl)cc1[N+](=O)[O-]
inactive: dose: 100.0 mg/kg/injection, schedule: Q01DX001 (ip), vehicle: saline with Tween-80 96 % of control | [7] 97 % of control and 92 % of control | [21] 98 % of control and 91 % of control | [8] 93 % of control | dose: 200.0 mg/kg/injection, schedule: Q01DX001 (ip), vehicle: saline with Tween-80 90 % of control | [22] 87 % of control | [23] 94 % of control and 98 % of control | [9] 97 % of control | dose: 400.0 mg/kg/injection, schedule: Q01DX001 (ip), vehicle: saline with Tween-80 87 % of control | [24] 93 % of control and 91 % of control | [14] 95 % of control

COC(=O)CNC(=O)CNC(=O)c1ccccc1 (Bz-Gly-Gly-OMe)
inactive: [7] 89 % of control | [22] 87 % of control | [25] 87 % of control

O=C(/C(=C/c1cccc(Cl)c1)c1ccccc1)c1ccc(O)cc1
inactive: [26] 101 % of control | [27] 90 % of control

Cc1c2oc3c(C)ccc(C(=O)OCCN4CCN(c5ccccc5)CC4)c3nc-2c(C(=O)OCCN2CCN(c3ccccc3)CC2)c(N)c1=O
inactive: [21] 92 % of control | [23] 103 % of control | [24] 103 % of control

CN(C)CCSC(CO)c1ccccc1 (stereo unspecified)
inactive: [26] 96 % of control | [27] 89 % of control | dose: 400.0 mg/kg/injection, schedule: Q01DX001 (ip), vehicle: carboxymethylcellulose (CMC) 94 % of control

CC(=O)Cc1cc(C)nc(/N=C(\N)Nc2ccccc2)n1
inactive: [15] 93 % of control | [16] 104 % of control

COc1ccccc1NC(=S)Nc1ccccc1OC
inactive: [3] 102 % of control | dose: 100.0 mg/kg/injection, schedule: Q01DX009 (ip), vehicle: saline sonified 97 % of control | [7] 90 % of control | [4] 93 % of control | dose: 100.0 mg/kg/injection, schedule: Q04DX003 (ip), vehicle: saline sonified 110 % of control | [8] 92 % of control | [5] 94 % of control | dose: 200.0 mg/kg/injection, schedule: Q01DX009 (ip), vehicle: saline sonified 97 % of control | [22] 101 % of control | [17] 98 % of control | dose: 200.0 mg/kg/injection, schedule: Q04DX003 (ip), vehicle: saline sonified 95 % of control | [9] 96 % of control | dose: 400.0 mg/kg/injection, schedule: Q01DX009 (ip), vehicle: saline sonified 86 % of control | [25] 93 % of control | [6] 96 % of control | dose: 400.0 mg/kg/injection, schedule: Q04DX003 (ip), vehicle: saline sonified 116 % of control | [14] 92 % of control

CSC(C#N)NC(=O)c1ccc([N+](=O)[O-])cc1 (stereo unspecified)
inactive: dose: 50.0 mg/kg/injection, schedule: Q04DX002 (ip), vehicle: Klucel (hydroxypropylcellulose) (HPC) 98 % of control | [15] 97 % of control and 109 % of control | [16] 98 % of control and 109 % of control

Cc1cc(C)cc(C(C)(C)C)c1
inactive: [8] 92 % of control | [9] 92 % of control | [14] 95 % of control

OCc1nc2nc(Cl)c(Cl)nc2[nH]1
inactive: [18] 93 % of control | [19] 98 % of control | [10] 107 % of control | [20] 95 % of control | [11] 98 % of control | [12] 96 % of control

C=CCN(CC=C)c1nc(N(CC)CC)nc(N(CC)CC)n1
inactive: dose: 25.6 mg/kg/injection, schedule: Q04DX002 (ip), vehicle: saline with Tween-80 91 % of control | dose: 64.0 mg/kg/injection, schedule: Q04DX002 (ip), vehicle: saline with Tween-80 97 % of control | dose: 160.0 mg/kg/injection, schedule: Q04DX002 (ip), vehicle: saline with Tween-80 102 % of control | [24] 112 % of control

COc1cc(-c2nc3c4ccccc4c4ccccc4c3[nH]2)cc(OC)c1OC
inactive: [4] 94 % of control | [17] 96 % of control | [6] 105 % of control
